Laboratory results taken from patent publication US10874646B2, “Epothilone analogs, methods of synthesis, methods of treatment, and drug conjugates thereof” (WILLIAM MARSH RICE UNIVERSITY, priority 2015, dated 2020).
Read-outs that look alike come from different tables or passages of the source.

Experiments:
OVCAR-8 = test: Cytotoxicity, standard NCI assay with sulforhodamine B, 96 h; details: Homo sapiens, OVCAR-8, 96 h, read-out: cytotoxicity (GI50, nM ± SD) OVCAR-8
tubulin = test: Induction/enhancement of tubulin assembly (Lin, et al., 1996); type: biochemical; details: 10 μM tubulin, 0.4M monosodium glutamate, 30 min at room temperature; Table 2; read-out: induction of tubulin assembly (EC50, μM ± SD)
LOX IMVI = test: NCI-60 human cancer cell line panel, five dose screen; type: cell-based; details: NCI-60 five dose screen
Text: (§1) Biological evaluation. The synthesized epothilone analogues were submitted to the NCI for testing against the NCI-60 human cancer cell line panel (Shoemaker, 2006).

A498 = test: as above; type: cell-based; details: NCI-60 five dose screen
Text: as §1

OVCAR-3 = test: as above; type: cell-based; details: NCI-60 five dose screen
Text: as §1

HL-60(TB) = test: as above; type: cell-based; details: NCI-60 five dose screen
Text: as §1

SK-MEL-5 = test: as above; type: cell-based; details: NCI-60 five dose screen
Text: as §1

SNB-75 = test: as above; type: cell-based; details: NCI-60 five dose screen
Text: as §1

HOP-92 = test: as above; type: cell-based; details: NCI-60 five dose screen
Text: as §1

HCT-116 = test: as above; type: cell-based; details: NCI-60 five dose screen
Text: as §1

M14 = test: as above; type: cell-based; details: NCI-60 five dose screen
Text: as §1

MCF7 = test: as above; type: cell-based; details: NCI-60 five dose screen
Text: as §1

SW-620 = test: as above; type: cell-based; details: NCI-60 five dose screen
Text: as §1

NCI-H23 = test: as above; type: cell-based; details: NCI-60 five dose screen
Text: as §1

NCI-H460 = test: as above; type: cell-based; details: NCI-60 five dose screen
Text: as §1

A549/ATCC = test: as above; type: cell-based; details: NCI-60 five dose screen
Text: as §1

HT29 = test: as above; type: cell-based; details: HT-29, NCI-60 five dose screen
Text: as §1

SR = test: as above; type: cell-based; details: NCI-60 five dose screen
Text: as §1

KM12 = test: as above; type: cell-based; details: NCI-60 five dose screen
Text: as §1

U251 = test: as above; type: cell-based; details: U-251, NCI-60 five dose screen
Text: as §1

MDA-MB-468 = test: as above; type: cell-based; details: NCI-60 five dose screen
Text: as §1

HS 578T = test: as above; type: cell-based; details: NCI-60 five dose screen
Text: as §1

RXF 393 = test: as above; type: cell-based; details: NCI-60 five dose screen
Text: as §1

MOLT-4 = test: as above; type: cell-based; details: NCI-60 five dose screen
Text: as §1

MDA-MB-435 = test: as above; type: cell-based; details: NCI-60 five dose screen
Text: as §1

HCT-15 = test: as above; type: cell-based; details: NCI-60 five dose screen
Text: as §1

SF-539 = test: as above; type: cell-based; details: NCI-60 five dose screen
Text: as §1

K-562 = test: as above; type: cell-based; details: K562, NCI-60 five dose screen
Text: as §1

PC-3 = test: as above; type: cell-based; details: NCI-60 five dose screen
Text: as §1

RPMI-8226 = test: as above; type: cell-based; details: NCI-60 five dose screen
Text: as §1

COLO 205 = test: as above; type: cell-based; details: NCI-60 five dose screen
Text: as §1

CCRF-CEM = test: as above; type: cell-based; details: NCI-60 five dose screen
Text: as §1

MCF-7 = test: Cytotoxicity, standard NCI assay with sulforhodamine B, 96 h; details: Homo sapiens, MCF7, 96 h, read-out: cytotoxicity (GI50, nM ± SD) MCF-7
[1] = tested on: NCI-60 human cancer cell line panel; test: NCI-60 initial one dose test; type: cell-based; details: 10 μM
Text: as §1

Compound	GI50 (OVCAR-8)	EC50 (tubulin)	GI50 (LOX IMVI)	GI50 (A498)	GI50 (OVCAR-3)	GI50 (HL-60(TB))	GI50 (SK-MEL-5)	GI50 (HCT-116)	GI50 (M14)	GI50 (MCF7)	GI50 (SW-620)	GI50 (NCI-H23)	GI50 (NCI-H460)	GI50 (A549/ATCC)	GI50 (HT29)	GI50 (KM12)	GI50 (U251)	GI50 (MDA-MB-468)	GI50 (HS 578T)	GI50 (MCF-7)	further results
C/C(=C\c1ccn(-c2ccc(N)cc2F)n1)[C@@H]1C[C@@H]2O[C@]2(C)CCC[C@H](C)[C@H](O)[C@@H](C)C(=O)C(C)(C)[C@@H](O)CC(=O)O1 [Compound 14]	38 ± 10 nM	19 ± 1 µM	23.1 nM	80.2 nM	17.6 nM	14.1 nM	18 nM	17.1 nM	18.7 nM	14 nM	23.6 nM	24.2 nM	20.8 nM	37.6 nM	18.4 nM	17.7 nM	36.2 nM	20.9 nM	37.2 nM	14 ± 2 nM	GI50 (SNB-75): 11.7 nM; GI50 (HOP-92; dash defined by footnote e, read-out: GI50 (symbol)): > 100 nM; GI50 (SR): 29.2 nM; GI50 (RXF 393): 30.6 nM; GI50 (MOLT-4): 28.3 nM; GI50 (MDA-MB-435): 8.35 nM; GI50 (HCT-15): 22.6 nM; GI50 (SF-539): 26.2 nM; GI50 (K-562): 20.7 nM; GI50 (PC-3): 25.8 nM; GI50 (RPMI-8226): 19.6 nM; GI50 (COLO 205): 18.2 nM; GI50 (CCRF-CEM): 13.6 nM
CSc1cc(/C=C(\C)[C@@H]2C[C@@H]3O[C@]3(C)CCC[C@H](C)[C@H](O)[C@@H](C)C(=O)C(C)(C)[C@@H](O)CC(=O)O2)n(CCNC(=O)OC(C)(C)C)n1 [Compound 5]	900 nM	> 40 µM																		1600 nM	activity in initial one dose test [1]: did not exhibit significant activity
C/C(=C\c1cc(C(F)(F)F)nn1CCNC(=O)OCC[Si](C)(C)C)[C@@H]1C[C@@H]2O[C@]2(C)CCC[C@H](C)[C@H](O)[C@@H](C)C(=O)C(C)(C)[C@@H](O)CC(=O)O1 [Compound 7]	1300 nM	> 40 µM																		1800 nM	activity in initial one dose test [1]: did not exhibit significant activity
C/C(=C\c1ccn(-c2ccc(N)c(C(F)(F)F)c2)n1)[C@@H]1C[C@@H]2O[C@]2(C)CCC[C@H](C)[C@H](O)[C@@H](C)C(=O)C(C)(C)[C@@H](O)CC(=O)O1 [Compound 11]	2.5 ± 0.4 nM	2.5 ± 0.5 µM	10.3 nM	11.3 nM	10.2 nM	7.36 nM	10.1 nM	4.82 nM	4.88 nM	< 3.25 nM	6.23 nM	18.3 nM	8.73 nM	13.4 nM	5.74 nM	9.16 nM	14.6 nM	10.6 nM	7.1 nM	3 ± 1 nM	GI50 (SNB-75): 5.75 nM; GI50 (HOP-92; read-out: GI50): 16.1 nM; GI50 (SR): 7.29 nM; GI50 (RXF 393): 14 nM; GI50 (MOLT-4): 14.2 nM; GI50 (MDA-MB-435): < 3.25 nM; GI50 (HCT-15): 11 nM; GI50 (SF-539): 9.55 nM; GI50 (K-562): 10.2 nM; GI50 (PC-3): 12.7 nM; GI50 (RPMI-8226): 9.98 nM; GI50 (COLO 205): 8.48 nM; GI50 (CCRF-CEM): 12.3 nM
C/C(=C\c1ccn(-c2ccc(N)c(F)c2)n1)[C@@H]1C[C@@H]2O[C@]2(C)CCC[C@H](C)[C@H](O)[C@@H](C)C(=O)C(C)(C)[C@@H](O)CC(=O)O1 [Compound 12]	1.8 ± 0.4 nM	7.8 ± 1 µM	< 5 nM	< 5 nM	< 5 nM	< 5 nM	< 5 nM	< 5 nM	< 5 nM	< 5 nM	< 5 nM	5.72 nM	< 5 nM	6.05 nM	< 5 nM	< 5 nM	< 5 nM	7.22 nM	5.51 nM	2.5 nM	GI50 (SNB-75): < 5 nM; GI50 (HOP-92; read-out: GI50): < 5 nM; GI50 (SR): < 5 nM; GI50 (RXF 393): 9.39 nM; GI50 (MOLT-4): < 5 nM; GI50 (MDA-MB-435): < 5 nM; GI50 (HCT-15): < 5 nM; GI50 (SF-539): 9.41 nM; GI50 (K-562): < 5 nM; GI50 (PC-3): 9.75 nM; GI50 (RPMI-8226): < 5 nM; GI50 (COLO 205): < 5 nM; GI50 (CCRF-CEM): 6.09 nM
C/C(=C\c1cc(C(F)(F)F)n(-c2ccc(N)cc2)n1)[C@@H]1C[C@@H]2O[C@]2(C)CCC[C@H](C)[C@H](O)[C@@H](C)C(=O)C(C)(C)[C@@H](O)CC(=O)O1 [Compound 9]	300 nM	> 40 µM	25 nM	66 nM	15.8 nM	7.88 nM	22.1 nM	5.31 nM	13.7 nM	3.65 nM	5.4 nM	88.5 nM	6.45 nM	48.8 nM	5.29 nM	5.25 nM	38.1 nM	23.1 nM	36.4 nM	900 nM	GI50 (HOP-92; read-out: GI50): 183 nM; GI50 (RXF 393): 40.7 nM; GI50 (MOLT-4): 48.1 nM; GI50 (MDA-MB-435): 2.08 nM; GI50 (HCT-15): 22 nM; GI50 (SF-539): 24.8 nM; GI50 (K-562): 15.7 nM; GI50 (PC-3): 32.2 nM; GI50 (RPMI-8226): 11.1 nM; GI50 (COLO 205): 14.7 nM; GI50 (CCRF-CEM): 47.6 nM
C/C(=C\c1ccn(-c2ccccc2N)n1)[C@@H]1C[C@@H]2O[C@]2(C)CCC[C@H](C)[C@H](O)[C@@H](C)C(=O)C(C)(C)[C@@H](O)CC(=O)O1 [Compound 10]	23 ± 10 nM	8 ± 1 µM	31.3 nM	18.8 nM	18.8 nM	17.2 nM	21.9 nM	18.3 nM	18 nM	17.7 nM	24.5 nM	35.8 nM	20.3 nM	34.5 nM	18.8 nM	20.6 nM	30.8 nM	23.4 nM	31.6 nM	5.5 nM	GI50 (SNB-75): 16.4 nM; GI50 (HOP-92; read-out: GI50): 80.7 nM; GI50 (SR): 27.4 nM; GI50 (RXF 393): 39.6 nM; GI50 (MOLT-4): 27.6 nM; GI50 (MDA-MB-435): 9.56 nM; GI50 (HCT-15): 32.5 nM; GI50 (SF-539): 15.8 nM; GI50 (K-562): 24.4 nM; GI50 (PC-3): 34.3 nM; GI50 (RPMI-8226): 17.8 nM; GI50 (COLO 205): 20.4 nM; GI50 (CCRF-CEM): 22.6 nM
C/C(=C\c1cc(C(F)(F)F)nn1CCNC(=O)OC(C)(C)C)[C@@H]1C[C@@H]2O[C@]2(C)CCC[C@H](C)[C@H](O)[C@@H](C)C(=O)C(C)(C)[C@@H](O)CC(=O)O1 [Compound 6]	1200 nM	> 40 µM																		4400 nM	activity in initial one dose test [1]: did not exhibit significant activity
C/C(=C\c1ccn(-c2ccc(N)cc2)n1)[C@@H]1C[C@@H]2O[C@]2(C)CCC[C@H](C)[C@H](O)[C@@H](C)C(=O)C(C)(C)[C@@H](O)CC(=O)O1 [Compound 8]	38 ± 10 nM	15 ± 4 µM	23.6 nM	102 nM	18.1 nM	15.8 nM	20 nM	18.7 nM	19.2 nM	15.2 nM	25 nM	25.2 nM	20.5 nM	36.9 nM	19.6 nM	19.2 nM	35.6 nM	39.2 nM	44 nM	10 nM	GI50 (SNB-75): 11.4 nM; GI50 (HOP-92; read-out: GI50): 146 nM; GI50 (SR): 30.3 nM; GI50 (RXF 393): 38.4 nM; GI50 (MOLT-4): 38.9 nM; GI50 (MDA-MB-435): 8.09 nM; GI50 (HCT-15): 26.7 nM; GI50 (SF-539): 19 nM; GI50 (K-562): 24.7 nM; GI50 (PC-3): 30.4 nM; GI50 (RPMI-8226): 21.3 nM; GI50 (COLO 205): 18.6 nM; GI50 (CCRF-CEM): 34.1 nM
